Measurements published in patent US9365554B2, “Viral polymerase inhibitors” (BIOTA SCIENTIFIC MANAGEMENT PTY LTD, priority 2012, dated 2016).

How the values were obtained:
1b (BK) NS5BΔ21 = molecular target: T1, 1b (BK) NS5BΔ21 (Hepatitis C virus genotype 1b, UniProt P26663); assay: HCV Polymerase Inhibition Assay; assay type: biochemical; conditions: in each of the HCV assays tested (polymerase and replicon assays)
T1 construct: 100 nM, 1b (BK) NS5BΔ21
Experimental: HCV polymerase reactions were carried out using a modified method of Howe et al., Antimicrobial Agents and Chemotherapy 2004 48(12): 4813-4821. Reactions contained a final concentration of, 0.5% DMSO, 100 nM, 1b (BK) NS5BΔ21, 20 mM Tris-HCl pH 7.5, 5 mM MgCl2, 5 mM MnCl2, 3 mM DTT, 0.05% BSA, 0.2 U/μL RNasin, 10 μg/mL Poly(rC) template, GTP (at Km) and 0.05 μCi/μL ^33P-GTP in a total reaction volume of 50 μL. Compounds were tested in a three fold dilution series, for example starting from 50 μM. Reactions were initiated with the addition of GTP and terminated after 90 min with 50 μL ice cold 0.2 M EDTA. Terminated reactions were transferred to DEAE 96-well filter plates, unincorporated nucleotides washed from the filters and 50 μL scintillation fluid added prior to reading on a scintillation counter. The compound concentration that reduced ^33P-GTP incorporation by 50% (IC50) was calculated using non-linear regression.

[1] = Aqueous Solubility (laser nephelometry); assay type: physicochemical; conditions: at both pH2 and pH6.5; good solubility when >25 ug/mL
Experimental: Test compounds prepared in DMSO were screened in duplicate over a range of concentrations (1.6-100 ug/mL) in different aqueous media (for example a pH6.5 buffers which are relevant to the stomach and upper regions of the small intestine and therefore important when predicting the amount of drug likely to be in solution following oral administration). Test compounds were serially diluted in 100% DMSO ranging from 10-0.16 mg/mL. These titrated DMSO stocks were then further diluted 1:100 with assay buffer and added to test plates (UV Star Griener 384 well plates), maintaining the DMSO concentration at 1%.

T1 sequence (P26663 2420-2989, stated change not applied): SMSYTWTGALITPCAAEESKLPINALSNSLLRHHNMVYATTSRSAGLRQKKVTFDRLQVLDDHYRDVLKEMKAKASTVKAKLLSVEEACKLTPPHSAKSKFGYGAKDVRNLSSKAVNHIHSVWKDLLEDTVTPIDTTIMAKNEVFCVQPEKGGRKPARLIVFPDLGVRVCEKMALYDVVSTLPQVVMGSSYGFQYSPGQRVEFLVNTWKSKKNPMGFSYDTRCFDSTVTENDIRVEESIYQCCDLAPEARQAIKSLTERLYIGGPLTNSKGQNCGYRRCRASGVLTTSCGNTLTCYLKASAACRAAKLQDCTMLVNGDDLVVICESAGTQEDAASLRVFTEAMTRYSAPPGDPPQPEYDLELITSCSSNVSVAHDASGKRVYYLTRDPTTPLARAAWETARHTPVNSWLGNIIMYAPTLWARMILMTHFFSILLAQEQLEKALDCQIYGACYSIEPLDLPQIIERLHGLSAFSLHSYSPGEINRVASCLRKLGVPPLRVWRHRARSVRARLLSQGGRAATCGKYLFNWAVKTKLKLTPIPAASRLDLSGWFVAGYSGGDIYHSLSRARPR

Structure (SMILES)	times more potent than Compound A (1b (BK) NS5BΔ21)	solubility (in words) [1]
CCN(c1cc2nn(-c3ccc(C)cn3)c(C(=O)NC)c2cc1C1CC1)S(C)(=O)=O [Compound 5, 5-cyclopropyl-6-[ethyl(methylsulfonyl)amino]-N-methyl-2-(5-methylpyridin-2-yl)-2H-indazole-3-carboxamide]	at least 10 times	good solubility
CCN(c1cc2nn(-c3ccc(C)nc3)c(C(=O)NC)c2cc1C1CC1)S(C)(=O)=O [Compound A, 5-Cyclopropyl-6-[ethyl(methylsulfonyl)amino]-N-methyl-2-(6-methylpyridin-3-yl)-2H-indazole-3-carboxamide, reference compound]	–	very poorly soluble
